pIC50: −log10 of the molar value. “Also recorded” adds a separate entry of the source.
How the values were obtained:
[1] = tested on: iPSC-derived nociceptor-like cells; test: Multi-electrode array: sensitization of nociceptor-like cells with temperature stimulation; type: cell-based, human; settings: then 40° C., day 28
Text: FIGS. 12A and 12B illustrate the results of an electrophysiology experiment (multi-electrode array using Maestro Pro, Axion Biosystems) showing that iPSC-derived nociceptor-like cells were sensitized in response to treatment with oxaliplatin and prostaglandin E2 (PGE2). Oxaliplatin is a widely used chemotherapeutic drug that can damage sensory neurons of the peripheral nervous system and lead to peripheral neuropathy. PGE2 is used to model inflammatory pain. At day 28 of the procedure described in Example 1, the iPSC-derived nociceptor-like cells were recorded at 37° C. for 10 minutes for baseline recording, and then pre-treated with 0.1% DMSO, 50 μM Oxaliplatin or 1 μM PGE2 for 15 minutes at 37° C. The temperature was then increased to 40° C. to stimulate the cells, and recording was performed for another 10 minutes.

[2] = tested on: iPSC-derived nociceptor-like cells; test: Multi-electrode array: stimulation of nociceptor-like cells by specific ligands; type: cell-based, human
Method: Functional analysis of nociceptors derived from iPSCs according to the procedure described in Example 1 was performed. Multi-electrode arrays were used for the electrophysiology characterization experiments.

[3] = biological target: T1, purinergic receptor P2RX3 (Homo sapiens, UniProt P56373); test: Multi-electrode array: α,β-me-ATP stimulation and P2RX3 antagonist block in nociceptor-like cells; type: cell-based; settings: 10 μM, day 28, multi-electrode array
T1 construct: iPSC-derived nociceptor-like cells were stimulated by application of 10 μM α,β-me-ATP, which is a known agonist for P2RX3 purinergic receptors; endogenous in cells; host or cells: iPSC-derived nociceptor-like cells, day 28 of differentiation
T1 sequence (P56373 1-397): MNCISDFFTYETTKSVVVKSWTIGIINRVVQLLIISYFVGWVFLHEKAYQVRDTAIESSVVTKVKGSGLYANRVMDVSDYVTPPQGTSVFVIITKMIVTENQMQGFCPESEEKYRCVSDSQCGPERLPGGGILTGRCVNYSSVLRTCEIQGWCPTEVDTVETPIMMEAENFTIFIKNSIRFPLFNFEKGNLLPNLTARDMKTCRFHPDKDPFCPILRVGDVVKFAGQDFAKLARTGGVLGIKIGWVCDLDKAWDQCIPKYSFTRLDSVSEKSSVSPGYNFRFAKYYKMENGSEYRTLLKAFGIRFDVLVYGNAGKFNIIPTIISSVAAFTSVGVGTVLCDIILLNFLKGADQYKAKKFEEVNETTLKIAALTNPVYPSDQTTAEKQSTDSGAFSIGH
Method: At day 28 of the procedure described in Example 1, the iPSC-derived nociceptor-like cells were pre-treated with 0.1% DMSO or 10 μM of each known antagonist of purinergic receptor P2RX3 for 30 minutes at 37° C. The cells were then stimulated by 10 μM α,β-me-ATP, and recordings were performed using multi-electrode.

cellular target = settings: cited from earlier work; for pIC50: as described in Sidrauski et al.

In the case of `O=C1[O][Pt]2([NH][C@@H]3CCCC[C@H]3[NH]2)[O]C1=O` [oxaliplatin], the “sensitization of nociceptor-like cells” value ([1]; 50 μM pre-treatment 15 minutes at 37° C.) was “sensitized”.
For `COc1cc(CNC(=O)CCCC/C=C/C(C)C)ccc1O` [capsaicin], the “response: frequency of firing action potentials” value (shortened to “response: frequency”) ([2]; 5 μM) was “increasing the frequency of firing action potentials; also recorded: stimulated”.
For `Nc1ncnc2c1ncn2[C@@H]1O[C@H](COP(=O)(O)CP(=O)(O)OP(=O)(O)O)[C@@H](O)[C@H]1O` [α,β-me-ATP], the “response: frequency” value ([2]; 10 μM) was “increasing the frequency of firing action potentials; also recorded: stimulated” and the “stimulation of nociceptor-like cells” value [3] was “stimulated”.
In the case of `O=C(COc1ccc(Cl)cc1)NC1CCC(NC(=O)COc2ccc(Cl)cc2)CC1` (stereo not drawn) [cis-ISRIB], the pIC50 (cellular target) is given as 6.22.
In the case of `O=C(COc1ccc(Cl)cc1)N[C@H]1CC[C@H](NC(=O)COc2ccc(Cl)cc2)CC1` [trans-ISRIB, N,N′-((1r,4r)-cyclohexane-1,4-diyl)bis(2-(4-chlorophenoxy)acetamide)], the pIC50 (cellular target) is listed as 8.30 and the “fold more potent than cis-ISRIB” value (cellular target; trans-ISRIB vs cis-ISRIB) is listed as 100 fold.
In the case of `C=CCN=C=S` [mustard oil, allyl isothiocyanate], the “response: frequency” value ([2]; 100 μM) was “increasing the frequency of firing action potentials; also recorded: stimulated”.
With `CCCCC[C@H](O)/C=C/[C@H]1[C@H](O)CC(=O)[C@@H]1C/C=C\CCCC(=O)O` [PGE2, prostaglandin E2] the “sensitization of nociceptor-like cells” value ([1]; 1 μM pre-treatment 15 minutes at 37° C.) was “sensitized”.

— patent publication US20220228111A1, “NOCICEPTOR DIFFERENTIATION FROM HUMAN PLURIPOTENT STEM CELLS” (priority 2019, published 2022)
